Measurements taken from patent publication US9993494B2, “Compositions and methods for treating fibrotic disease” (eFFECTOR Therapeutics, Inc., priority 2014, dated 2018).

Test system: normal human lung fibroblasts
Experiment: Ribosomal profiling: translational efficiency in TGFβ-treated fibroblasts
Format: cell-based
Settings: TGFβ-treated fibroblasts
Method: Ribosomal profiling allows for measurement of changes in transcription and translation on a genome-wide basis accompanying TGFβ-dependent transformation of fibroblasts to myofibroblasts. Ribosomal profiles of the TGFβ-treated fibroblasts from Example 1 (about 6×10^6 cells/10 cm plate) were prepared and analyzed for changes in translational efficiencies with respect to potential disease-associated cellular changes accompanying this TGFβ-induced transformation.
Briefly, cells were washed with cold PBS supplemented with cycloheximide and lysed with 1× mammalian cell lysis buffer for 10 minutes on ice. Lysates were clarified by centrifugation for 10 minutes at 14,000 rpm and supernatants were collected. Cell lysates were processed to generate ribosomal protected fragments and total mRNA according to the instructions included with the ARTseq Ribosome Profiling Kit (Illumina, San Diego, Calif.). Sequencing of total RNA (RNA) and of ribosome-protected fragments of RNA (RPF) was carried out using RNA-Seq methodology according to the manufacturer's instructions (Illumina). To analyze the ribosomal profiles, RNA-Seq reads were processed with tools from the FASTX-Toolkit (fastq_quality_trimmer, fastx_clipper and fastx_trimmer). Unprocessed and processed reads were evaluated for a variety of quality measures using FastQC, and processed reads were mapped to the human genome using TopHat (see, e.g., Trapnell et al., Bioinformatics 25:1105, 2009). Gene-by-gene assessment of the number of fragments strictly and uniquely mapping to the coding region of each gene was conducted using HTSeq-count, a component of the HTSeq package. […] Genes with low counts in either RPF or RNA were excluded from differential analyses. Pathway and network analyses of differential data were conducted using Ingenuity Pathway Analysis (IPA).

Cc1ccc(=O)n(-c2ccccc2)c1 [pirfenidone, 5-methyl-1-phenylpyridin-2-one]
renormalizing the translational profile of RPL9 (ENSG00000163682): + (+ = 0.9 to 1.5) | renormalizing the translational profile of RHOBTB3 (ENSG00000164292): − (− = <0.9) | renormalizing the translational profile of HCN1 (ENSG00000164588): − (− = <0.9) | renormalizing the translational profile of RPL27A (ENSG00000166441): + (+ = 0.9 to 1.5) | renormalizing the translational profile of RP11-382A20.3.1 (ENSG00000166503): − (− = <0.9) | renormalizing the translational profile of ANKDD1A (ENSG00000166839): + (+ = 0.9 to 1.5) | renormalizing the translational profile of RPL13 (ENSG00000167526): − (− = <0.9) | renormalizing the translational profile of EEF2 (ENSG00000167658): + (+ = 0.9 to 1.5) | renormalizing the translational profile of CA5B (ENSG00000169239): ++ (++ = 1.5 to 2.0) | renormalizing the translational profile of MURC (ENSG00000170681): − (− = <0.9) | renormalizing the translational profile of HTRA3 (ENSG00000170801): − (− = <0.9) | renormalizing the translational profile of PDE7B (ENSG00000171408): − (− = <0.9) | renormalizing the translational profile of LPAR3 (ENSG00000171517): − (− = <0.9) | renormalizing the translational profile of CTPS (ENSG00000171793): − (− = <0.9) | renormalizing the translational profile of QARS (ENSG00000172053): − (− = <0.9) | renormalizing the translational profile of RPL38 (ENSG00000172809): − (− = <0.9) | renormalizing the translational profile of MRPL45 (ENSG00000174100): − (− = <0.9) | renormalizing the translational profile of RPL4 (ENSG00000174444): + (+ = 0.9 to 1.5) | renormalizing the translational profile of RPL15 (ENSG00000174748): − (− = <0.9) | renormalizing the translational profile of DES (ENSG00000175084): − (− = <0.9) | renormalizing the translational profile of EIF3F (ENSG00000175390): − (− = <0.9) | renormalizing the translational profile of CLCF1 (ENSG00000175505): − (− = <0.9) | renormalizing the translational profile of AMIGO3 (ENSG00000176020): + (+ = 0.9 to 1.5) | renormalizing the translational profile of C14orf49 (ENSG00000176438): − (− = <0.9) | renormalizing the translational profile of RPLP2 (ENSG00000177600): + (+ = 0.9 to 1.5) | renormalizing the translational profile of IMPDH2 (ENSG00000178035): − (− = <0.9) | renormalizing the translational profile of DNAJC22 (ENSG00000178401): + (+ = 0.9 to 1.5) | renormalizing the translational profile of RPL35A (ENSG00000182899): + (+ = 0.9 to 1.5) | renormalizing the translational profile of LENG9 (ENSG00000182909): − (− = <0.9) | renormalizing the translational profile of C22orf32 (ENSG00000183172): − (− = <0.9) | renormalizing the translational profile of NPW (ENSG00000183971): − (− = <0.9) | renormalizing the translational profile of PDE4B (ENSG00000184588): + (+ = 0.9 to 1.5) | renormalizing the translational profile of ROBO2 (ENSG00000185008): − (− = <0.9) | renormalizing the translational profile of PTCH1 (ENSG00000185920): − (− = <0.9) | renormalizing the translational profile of POLR1D (ENSG00000186184): − (− = <0.9) | renormalizing the translational profile of DYNC2H1 (ENSG00000187240): − (− = <0.9) | renormalizing the translational profile of RPL14 (ENSG00000188846): − (− = <0.9) | renormalizing the translational profile of LRRK2 (ENSG00000188906): − (− = <0.9) | renormalizing the translational profile of NACA (ENSG00000196531): + (+ = 0.9 to 1.5) | renormalizing the translational profile of LAMB3 (ENSG00000196878): − (− = <0.9) | renormalizing the translational profile of PCBP2 (ENSG00000197111): − (− = <0.9) | renormalizing the translational profile of MAP3K5 (ENSG00000197442): − (− = <0.9) | renormalizing the translational profile of RPL37A (ENSG00000197756): + (+ = 0.9 to 1.5) | renormalizing the translational profile of RPL12 (ENSG00000197958): + (+ = 0.9 to 1.5) | renormalizing the translational profile of LPAR1 (ENSG00000198121): − (− = <0.9) | renormalizing the translational profile of RPL23A (ENSG00000198242): − (− = <0.9) | renormalizing the translational profile of PLN (ENSG00000198523): − (− = <0.9) | renormalizing the translational profile of RPL10A (ENSG00000198755): − (− = <0.9) | renormalizing the translational profile of CES1 (ENSG00000198848): − (− = <0.9) | renormalizing the translational profile of RPL39 (ENSG00000198918): − (− = <0.9) | renormalizing the translational profile of CARD16 (ENSG00000204397): − (− = <0.9) | renormalizing the translational profile of MICA (ENSG00000204520): − (− = <0.9) | renormalizing the translational profile of GNB2L1 (ENSG00000204628): + (+ = 0.9 to 1.5) | renormalizing the translational profile of RPL17 (ENSG00000215472): + (+ = 0.9 to 1.5) | renormalizing the translational profile of RPL41 (ENSG00000229117): − (− = <0.9) | renormalizing the translational profile of ARPC1A (ENSG00000241685): − (− = <0.9) | renormalizing the translational profile of CHCHD10 (ENSG00000250479): +++ (+++ = >2.0) | renormalizing the translational profile of EEF1G (ENSG00000254772): − (− = <0.9) | number of genes whose translational efficiency was uniquely modulated by the compound (duplicate ribosomal profiles): 35 genes | effect in renormalizing the translational profile of the gene (gene RPS2 (ENSG00000140988)): − (− = <0.9) | effect in renormalizing the translational profile of the gene (gene RPS3 (ENSG00000149273)): − (− = <0.9) | effect in renormalizing the translational profile of the gene (gene RPS3A (ENSG00000145425)): − (− = <0.9) | effect in renormalizing the translational profile of the gene (gene RPS4X (ENSG00000198034)): − (− = <0.9) | effect in renormalizing the translational profile of the gene (gene RPS4Y1 (ENSG00000129824)): − (− = <0.9) | effect in renormalizing the translational profile of the gene (gene RPS5 (ENSG00000083845)): + (+ = 0.9 to 1.5) | effect in renormalizing the translational profile of the gene (gene RPS6 (ENSG00000137154)): − (− = <0.9)
